Experimental data published in patent US20250115628A1, “FLUORINATED FLUOROPHORES” (HOWARD HUGHES MEDICAL INSTITUTE, priority 2023, published 2025).
Where two headings read alike, the source gives them in different places.

Assays:
[1] = rhodamine derivatives; 10 mM HEPES, pH 7.3; data from the inventors' published work; cited from earlier work
[2] = rhodamine derivatives; 10 mM HEPES, pH 7.3; data from the inventors' published work; cited from earlier work; remark: listed apart in the source
[3] = Quantum yield determination; format: physicochemical
Experimental: All reported absolute fluorescence quantum yield values (Φf) were measured using a Quantaurus-QY spectrometer (model C11374, Hamamatsu). This instrument uses an integrating sphere to determine photons absorbed and emitted by a sample. Measurements were carried out using dilute samples (A<0.1), and self-absorption corrections were performed using the instrument software.^81

[4] = pKa determination (absorbance vs. pH); conditions: for ηH: Hill coefficient from pH titration data; for pKa: aqueous buffer solutions
Experimental: For pH 2.0-4.0, the McIlvaine citrate/phosphate buffer system was used. For other pH ranges dye absorbance was measured in buffers containing 150 mM NaCl and 10 mM buffer using the following systems: citrate (pH 4.0-6.0), phosphate (pH 5.8-8.0); tris (pH 7.8-9.0); carbonate (pH 9.2-10.0). Buffer solutions containing 5 M of each fluorophore were prepared (36 samples in duplicate from pH 4.0-10.0 for 51, 53, and 60; 48 samples in duplicate from pH 2.0-10.0 for 76 and 77). Absorbance values were recorded on a Cary Model 100 spectrometer and plotted using GraphPad Prism software. The points were fitted to a sigmoidal dose response curve with a variable slope to determine the Hill coefficient (ηH).

[5] = General UV-vis and fluorescence spectroscopy; format: physicochemical
Experimental: Spectroscopy was performed using 1^−cm path length, 3.5^−mL quartz cuvettes or 1^−cm path length, 1.4^−mL semi-micro quartz cuvettes from Starna Cells. All measurements were taken at ambient temperature (22±2° C.). Absorption spectra were recorded on a Cary Model 100 spectrometer (Agilent), and fluorescence spectra were recorded on a Cary Eclipse fluorometer (Varian). The spectra, maximum absorption wavelength (labs), extinction coefficient at λabs (8), and maximum emission wavelength (em) were measured in 10 mM HEPES, pH 7.3 buffer (rhodamines and Malachite Green derivative 49) or 0.1 M NaOH (fluoresceins); the reported values for e are averages (n=3). Normalized spectra are shown for clarity.

[6] = rhodamine derivatives; 1:1 dioxane:H2O; data from the inventors' published work; cited from earlier work
[7] = Determination of KL-Z (lactone-zwitterion equilibrium constant); format: physicochemical; set-up: key: KL-Z = (εdw/εmax)/(1−εdw/εmax); εdw measured in 1:1 dioxane/water; conditions: 1:1 dioxane:H2O
Experimental: KL-Z was calculated using the following equation:^16, 18 KL-Z=(εdw/εmax)/(1−εdw/εmax). εdw is the extinction coefficient of the dyes in a 1:1 (v/v) dioxane/water solvent mixture; this dioxane/water mixture was chosen to give the maximum spread of KL-Z values across all classes of rhodamines.^18 εmax refers to the maximal extinction coefficients measured in different solvent mixtures empirically determined depending on dye type: 0.1% v/v trifluoroacetic acid in ethanol for 18, 20, 29, 34, 36, 70-72, 81-83, 93-95, 99-102, and 104; 0.1% v/v trifluoroacetic acid in 2,2,2^−trifluoroethanol for all other rhodamine variants. A accurate determination of low KL-Z values is complicated by the relatively poor sensitivity of absorbance measurements.

[8] = fluorescein derivatives, 0.1 N NaOH
[9] = quinolinyl rhodamines, 10 mM HEPES, pH 7.3
[10] = rhodamine derivatives, 10 mM HEPES, pH 7.3

C[Si]1(C)c2cc(N3CCC3)ccc2C2(OC(=O)c3ccccc32)c2ccc(N3CCC3)cc21 [compound 1, JF646]
ε [1]: 5,600 M^−1cm^−1
λabs [1]: 646 nm
λem [1]: 664 nm
Φf [2]: 0.54

CC1(C)C2=CC(=O)C=CC2=C(c2c(F)c(F)c(F)c(F)c2C(=O)O)c2ccc(O)cc21 [compound 51, 4,5,6,7^−Tetrafluoro-carbofluorescein]
Φf [3, 8]: 0.54
ηH [4]: 1.02
pKa [4]: 6.86
ε [5, 8]: 96,700 M^−1cm^−1
λabs [5, 8]: 564 nm
λem [5, 8]: 585 nm

CC1(C)C2=CC(=O)C(F)=CC2=C(c2c(F)c(F)c(F)c(F)c2C(=O)O)c2cc(F)c(O)cc21 [compound 53, 2′,4,5,6,7,7′-Hexafluorocarbofluorescein]
Φf [3, 8]: 0.29
ηH [4]: 1.00
pKa [4]: 5.47
ε [5, 8]: 91,100 M^−1cm^−1
λabs [5, 8]: 576 nm
λem [5, 8]: 599 nm

C[Si]1(C)C2=CC(=O)C=CC2=C(c2c(F)c(F)c(F)c(F)c2C(=O)O)c2ccc(O)cc21 [compound 55, 4,5,6,7^−Tetrafluoro-Si-fluorescein]
Φf [3, 8]: 0.50
ηH [4]: 1.23
pKa [4]: 7.08
ε [5, 8]: 84,100 M^−1cm^−1
λabs [5, 8]: 598 nm
λem [5, 8]: 614 nm

O=C1OC2(c3ccc(O)cc3Oc3cc(O)ccc32)c2c(F)c(F)c(F)c(F)c21 [compound 60, 4,5,6,7^−tetrafluorofluorescein, reference compound]
Φf [3, 8]: 0.85
ηH [4]: 0.92
ε [5, 8]: 85,600 M^−1cm^−1
λabs [5, 8]: 508 nm
λem [5, 8]: 527 nm

O=C1OC2(c3ccc(O)cc3Oc3cc(O)ccc32)c2ccccc21 [compound 73, reference compound]
Φf [3, 8]: 0.92
ηH [4]: 0.97
ε [5, 8]: 90,000 M^−1cm^−1
λabs [5, 8]: 490 nm
λem [5, 8]: 514 nm

O=C1OC2(c3cc(F)c(O)cc3Oc3cc(O)c(F)cc32)c2ccccc21 [compound 76, reference compound]
Φf [3, 8]: 0.97
ηH [4]: 0.98
ε [5, 8]: 82,400 M^−1cm^−1
λabs [5, 8]: 490 nm
λem [5, 8]: 514 nm

O=C1OC2(c3cc(F)c(O)cc3Oc3cc(O)c(F)cc32)c2c(F)c(F)c(F)c(F)c21 [compound 77, reference compound]
Φf [3, 8]: 0.18
ηH [4]: 1.00
ε [5, 8]: 81,200 M^−1cm^−1
λabs [5, 8]: 508 nm
λem [5, 8]: 527 nm

N=c1ccc2c(-c3ccccc3C(=O)O)c3ccc(N)cc3oc-2c1 [compound 81]
KL-Z [6]: 2.53
ε [1]: 75,000 M^−1cm^−1
λabs [1]: 487 nm
λem [1]: 520 nm
Φf [2]: 0.88

CC1(C)C2=CC(=N)C=CC2=C(c2ccccc2C(=O)O)c2ccc(N)cc21 [compound 82]
KL-Z [6]: 0.0127
ε [1]: 65,000 M^−1cm^−1
λabs [1]: 552 nm
λem [1]: 577 nm
Φf [2]: 0.64

C[Si]1(C)C2=CC(=N)C=CC2=C(c2ccccc2C(=O)O)c2ccc(N)cc21 [compound 83]
ε [1]: 2,200 M^−1cm^−1
λabs [1]: 587 nm
λem [1]: 609 nm
Φf [2]: 0.53

CC1(C)c2cc(N3CCC3)ccc2C2(OC(=O)c3ccccc32)c2ccc(N3CCC3)cc21 [compound 86, JF608]
KL-Z [6]: 0.0911
ε [1]: 99,000 M^−1cm^−1
λabs [1]: 608 nm
λem [1]: 631 nm
Φf [2]: 0.67

[2H]C1([2H])N(c2ccc3c(-c4ccccc4C(=O)[O-])c4ccc(=[N+]5C([2H])([2H])C([2H])([2H])C([2H])([2H])C5([2H])[2H])cc-4oc3c2)C([2H])([2H])C([2H])([2H])C1([2H])[2H] [compound 87]
KL-Z [6]: 4.96
λabs [1]: 554 nm
λem [1]: 576 nm
Φf [2]: 0.80

[2H]C1([2H])N(c2ccc3c(c2)C(C)(C)C2=CC(=[N+]4C([2H])([2H])C([2H])([2H])C([2H])([2H])C4([2H])[2H])C=CC2=C3c2ccccc2C(=O)[O-])C([2H])([2H])C([2H])([2H])C1([2H])[2H] [compound 88]
KL-Z [6]: 0.880
ε [1]: 130,000 M^−1cm^−1
λabs [1]: 612 nm
λem [1]: 633 nm
Φf [2]: 0.70

[2H]C1([2H])N(c2ccc3c(c2)[Si](C)(C)C2=CC(=[N+]4C([2H])([2H])C([2H])([2H])C([2H])([2H])C4([2H])[2H])C=CC2=C3c2ccccc2C(=O)[O-])C([2H])([2H])C([2H])([2H])C1([2H])[2H] [compound 89, JFX650]
ε [1]: 17,600 M^−1cm^−1
λabs [1]: 650 nm
λem [1]: 667 nm
Φf [2]: 0.53

CN(c1ccccc1)c1ccc2c(-c3ccccc3C(=O)[O-])c3ccc(=[N+](C)c4ccccc4)cc-3oc2c1 [compound 90]
KL-Z [6]: 0.296
ε [1]: 16,000 M^−1cm^−1
λabs [1]: 549 nm

CC1CC(C)(C)Nc2cc3[o+]c4cc5c(cc4c(-c4ccccc4C(=O)[O-])c3cc21)C(C)CC(C)(C)N5 (centres unmarked) [compound 99, 2^−(2,2,4,8,10,10^−Hexamethyl-1,2,3,4,8,9,10,11-octahydropyrano[3,2^−g:5,6^−g′]diquinolin-13^−ium-6^−yl)benzoate]
Φf [3, 9]: 0.83
KL-Z ([7]; quinolinyl rhodamines): 6.30
ε [5, 9]: 112,000 M^−1cm^−1
λabs [5, 9]: 542 nm
λem [5, 9]: 564 nm

CC1CC(C)(C)Nc2cc3c(cc21)C(c1ccccc1C(=O)O)=c1cc2c(cc1[Si]3(C)C)=NC(C)(C)CC2C (centres unmarked) [compound 100, 2^−(2,2,4,8,10,10,13,13-Octamethyl-2,3,4,8,9,10,11,13-octahydrosilino[3,2^−g:5,6^−g]diquinolin-6^−ylium-6(1H)-yl)-benzoate]
Φf [3, 9]: 0.34
KL-Z ([7]; quinolinyl rhodamines): 0.0220
ε [5, 9]: 10,400 M^−1cm^−1
λabs [5, 9]: 638 nm
λem [5, 9]: 655 nm

CC1=CC(C)(C)Nc2cc3[o+]c4cc5c(cc4c(-c4ccccc4C(=O)[O-])c3cc21)C(C)=CC(C)(C)N5 [compound 101, 2^−(2,2,4,8,10,10^−Hexamethyl-1,2,10,11^−tetrahydropyrano[3,2-g:5,6^−g′]diquinolin-13^−ium-6^−yl)benzoate]
Φf [3, 9]: 0.68
KL-Z ([7]; quinolinyl rhodamines): 5.14
ε [5, 9]: 94,100 M^−1cm^−1
λabs [5, 9]: 573 nm
λem [5, 9]: 595 nm

CC1=CC(C)(C)N(C)c2cc3c(cc21)C(c1ccccc1C(=O)[O-])=c1cc2c(cc1O3)=[N+](C)C(C)(C)C=C2C [compound 103, 2^−(1,2,2,4,8,10,10,11-Octamethyl-1,2,10,11-tetrahydropyrano[3,2^−g:5,6^−g]diquinolin-13^−ium-6^−yl)benzoate]
Φf [3, 9]: 0.73
KL-Z ([7]; quinolinyl rhodamines): 4.44
ε [5, 9]: 95,200 M^−1cm^−1
λabs [5, 9]: 585 nm
λem [5, 9]: 610 nm

CN1CCc2cc3c(cc21)[Si](C)(C)c1cc2c(cc1=C3c1c(F)c(F)c(F)c(F)c1C(=O)[O-])CC[N+]=2C [compound 108, SiRF712]
Φf [3, 10]: 0.09
KL-Z ([7]; rhodamine derivatives): 1.97
ε [5, 10]: 98,800 M^−1cm^−1
λabs [5, 10]: 712 nm
λem [5, 10]: 735 nm

JF669 [compound 2]
KL-Z [6]: 0.262
ε [1]: 112,000 M^−1cm^−1
λabs [1]: 669 nm
λem [1]: 662 nm
Φf [2]: 0.37
